Laboratory results published in patent US12582104B2, “Mutant myocilin disease model and uses thereof” (Regeneron Pharmaceuticals, Inc., priority 2021, dated 2026).

Tested on: SAM-MYOC mice
Test: Intraocular pressure (IOP) in SAM-MYOC mice
Format: in vivo, mouse
Conditions: SAM-MYOC mice approximately 10 weeks after AAV2.Y3F-SAM-g4; one drop per eye; IOP at 2, 4, 6, and 24 hours
Protocol: To validate the SAM mice comprising a humanized MYOC locus comprising a Y437H mutation (SAM-MYOC mice), SAM-MYOC mice homozygous or heterozygous for the humanized MYOC locus were treated with AAV2.Y3F-SAM-g4, AAV2.Y3F-SAM-g5, an AAV2.Y3F-SAM-LacZ control, or nothing (naïve). […] This validated the SAM-MYOC mice as a suitable MYOC disease model with increased IOP.
IOP-lowering drugs used to treat glaucoma patients were then tested as a proof-of-concept to determine if they could lower the IOP observed in the SAM-MYOC mice following treatment with SAM-g4. We tested two IOP-lowering drugs: (1) timolol (a beta blocker that suppresses aqueous humor formation); and (2) RHOPRESSA® (a ROCK inhibitor that increases outflow of aqueous humor). […] At 0 hours, the IOP was measured, and each eye received one drop of either timolol or RHOPRESSA®, and IOP was measured at 2, 4, 6, and 24 hours after treatment.
An siRNA targeting human MYOC was then tested to determine if it could lower the high IOP observed in the SAM-MYOC mice following treatment with SAM-g4. SAM-g4 was administered via intracameral (IC) injection at day 0, and baseline IOP was measured. IOP was then measured over the following five weeks. At week five, MYOC siRNA #1 (1 μL, 15 μg dose) was administered via intravitreal (IVT) injection, and IOP was measured at various timepoints over the subsequent weeks. […]

## CC(C)(C)NC[C@H](O)COc1nsnc1N1CCOCC1 [timolol]
  IOP after IOP-lowering drug: effective at lowering IOP
